The text below walks through data of patent publication US6583179B2, “Substituted aminoalkylamide derivatives as antagonists of follicle stimulating hormone” (Ortho-McNeil Pharmaceutical, Inc., priority 1999, dated 2003).

For the assay, the target named is T1, human FSH receptor (Homo sapiens, UniProt P23945).
T1 construct: expressed in transfected cells; host or cells: Chinese Hamster Ovary cells (K-1; ATCC), line rhFSHR-cLUC
T1 sequence (P23945 18-695): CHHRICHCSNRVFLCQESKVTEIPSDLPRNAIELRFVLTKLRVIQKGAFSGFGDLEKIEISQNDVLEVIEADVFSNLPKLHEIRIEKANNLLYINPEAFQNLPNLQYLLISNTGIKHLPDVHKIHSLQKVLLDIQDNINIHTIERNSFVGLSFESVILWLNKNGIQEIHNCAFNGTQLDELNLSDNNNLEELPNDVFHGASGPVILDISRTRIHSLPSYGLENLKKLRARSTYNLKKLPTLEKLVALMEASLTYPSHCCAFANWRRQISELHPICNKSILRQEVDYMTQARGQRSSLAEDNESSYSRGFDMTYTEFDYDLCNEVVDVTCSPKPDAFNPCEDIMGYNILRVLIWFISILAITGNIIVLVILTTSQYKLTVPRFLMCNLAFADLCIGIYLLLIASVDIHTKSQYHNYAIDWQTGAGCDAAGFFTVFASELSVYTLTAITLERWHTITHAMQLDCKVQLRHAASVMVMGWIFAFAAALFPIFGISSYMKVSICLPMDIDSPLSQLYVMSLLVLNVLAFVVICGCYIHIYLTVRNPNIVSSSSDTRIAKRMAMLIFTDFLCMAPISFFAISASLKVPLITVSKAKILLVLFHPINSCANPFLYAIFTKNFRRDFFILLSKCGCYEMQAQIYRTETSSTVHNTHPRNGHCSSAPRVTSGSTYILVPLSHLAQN
Description: hFSHR CHO cAMP assay (rhFSHR-cLUC cells, FSH-stimulated cAMP, radioimmunoassay). Particulars: inhibition of cAMP produced by EC70 dose of FSH (4.85 nM); maximum concentration 50 μM. It counts as cell-based. The source says:
Minimum Essential Medium-Alpha (MEM-alpha), fetal bovine serum (FBS), penicillin, streptomycin, geneticin, trypsin-EDTA, Hanks' Balanced Salt Solution (no Calcium chloride, Magnesium chloride, Magnesium sulfate, or phenol red; Ca-Mg free HBSS) were purchased from Gibco BRL (Gaithersburg, Md.). The cells used for the FSH bioassay (rhFSHR-cLUC) were Chinese Hamster Ovary cells (K-1; ATCC) stably transformed with human FSH receptor (pSVK-FSHr) and a cAMP luciferase reporter gene (responsive CGα-180LUC). Follicle Stimulating Hormone (Metrodin; Fertinex) was purchased from Serono, Ltd. (Norwell, Mass.).
The rhFSHR-cLUC cell cultures were maintained in MEM-Alpha supplemented with 10% heat-inactivated FBS (HIFBS), 100 U/ml penicillin, 100 μg/mL streptomycin, and included 0.1 g/L geneticin for stable cell selection.
Forty-eight hours after the cells were plated in sterile 96-well culture plates (Corning, Corning, N.Y.) the spent media was removed and 50 μl assay media (modified growth media with 2% HIFBS) containing 2 mM IBMX (3-isobutyl-1-methyl-xanthine) was added to the cells. Compounds (25 μl) in the appropriate concentration were added followed 5 minutes later by an EC70 dose of FSH (25 μl; 160 ng/ml; 4.85 nM). After 10 minutes @ 22.5° C. (room temperature) the reaction was terminated by addition of 25 μL 0.5 N hydrochloric acid to each well. The amount of cAMP produced was measured by radioimmunoassay in a FlashPlate (DuPont, Boston, Mass.). To each flash plate 60 μL flash plate buffer was added followed by 40 μL acidified cell sample or cAMP standard, followed with the addition of 100 μl ^125l-cAMP trace. The FlashPlates were sealed, incubated overnight @ room temperature, and counted in a Packard TopCount (Packard Instrument Co., Meriden, Conn.). The cAMP radioimmunoassay results were calculated using DPM conversion and log-logit transformation of % binding (Excel program).
Test compounds were solubilized in 30% dimethyl sulfoxide (DMSO) at a concentration of 10 mM before diluting to appropriate concentrations in assay medium. The final DMSO concentration in the treated cells and in the control cells was 0.75%.
For individual experiments, a set of samples were tested including a vehicle control (assay buffer), a reference compound (hFSH) at a range of concentrations designed to elicit a minimal to maximal response, and several concentrations of test compounds together with an EC70 concentration of standard (hFSH challenge). Each compound was performed in duplicates for the primary evaluation and quadruplicates for the dose-ranging experiments. The cAMP radioimmunoassay raw data (pmol) were calculated to provide average pmol cAMP produced/ml and the percent inhibition was calculated as shown below.
% Inh=[1−(Avg.pmoltest compound+standard)/(Avg.pmolstandard)]×100
EC50 values were calculated from an analysis of the concentration-inhibition data using a linear analysis of the data transformed to a log-logit format.

Molecules are shown by their SMILES.

Take `C[C@@H](CN(CC(=O)NCC1CCCC(CN)C1)S(=O)(=O)c1ccc(-c2cccc(F)c2)cc1)c1ccccc1` (stereo partly drawn) [Compound 386]: the EC50 (usually the concentration needed to bring the measured effect to its halfway point) stood at 1170 nM.

As for `COc1ccccc1CCN(CC(=O)NCC1CCCC(CN)C1)S(=O)(=O)c1ccc(-c2ccccc2Cl)cc1` (stereo not drawn) [Compound 337], the EC50 stood at 310 nM.

As to `C[C@H](CN(CC(=O)NCc1ccc(CN)cc1)C(=O)c1ccc(-c2ccccc2Cl)cc1)c1ccccc1` [Compound 477], a half-maximal response (EC50) required 7700 nM.

Regarding `C[C@@H](CN(CC(=O)NCCCCCCN)S(=O)(=O)c1ccc(-c2ccccc2Cl)cc1)c1ccccc1` [Compound 397], the EC50 turned out to be 50 nM.

`CCN(CC)Cc1ccc(CNC(=O)CN(C[C@@H](C)c2ccccc2)S(=O)(=O)c2ccc(-c3ccccc3C)cc2)cc1` [Compound 475] had an EC50 of 9460 nM.

The compound `COc1ccccc1CCN(CC(=O)NCc1ccc(CN)cc1)S(=O)(=O)c1ccc(-c2cccs2)cc1` [Compound 245] showed an EC50 of 5630 nM.

The compound `COc1ccccc1CCN(CC(=O)NCCCCCCN)S(=O)(=O)c1ccc(-c2ccccc2C)cc1` [Compound 352] yielded an EC50 of 110 nM.

`C[C@H](CN(CC(=O)NCC1CCCC(CN)C1)S(=O)(=O)c1ccc(-c2ccccc2Cl)cc1)c1ccccc1` (stereo partly drawn) [Compound 388]: the EC50 was determined as 900 nM.

Consider `COc1ccccc1CN(CC(=O)NCC1CCCC(CN)C1)S(=O)(=O)c1ccc(-c2ccc(Cl)cc2Cl)cc1` (stereo not drawn) [Compound 343], for which the EC50 was found to be 530 nM.

Compound `C[C@@H](CN(CC(=O)NCCCCCN)S(=O)(=O)c1ccc(-c2cccc(F)c2)cc1)c1ccccc1` [Compound 380] showed an EC50 of 1200 nM.

The compound `Cc1ccccc1-c1ccc(S(=O)(=O)N(CC(=O)NCc2ccc(CN)cc2)CC(C)c2ccccc2)cc1` (stereo not drawn) [Compound 311] had an EC50 of 50 nM.

For the compound `COc1ccccc1CN(CC(=O)N1CCNCC1)S(=O)(=O)c1ccc(-c2ccccc2C)cc1` [Compound 174], the EC50 is at least 50000 nM.

The compound `COc1ccccc1CCN(CC(=O)N1CCNCC1)S(=O)(=O)c1ccc(-c2ccccc2C)cc1` [Compound 151] registered an EC50 of 9790 nM. That is a single-digit micromolar value.

Turning to `COc1ccccc1CCN(CC(=O)NCc1cccc(CN)c1)S(=O)(=O)c1ccc(-c2ccccc2C)cc1` [Compound 344], a half-maximal response (EC50) required 700 nM.

Compound `COc1ccccc1CN(CC(=O)NCC1CCCC(CN)C1)S(=O)(=O)c1ccc(-c2ccccc2C)cc1` (stereo not drawn) [Compound 340] gave an EC50 of 650 nM.

For `CCN(CC)Cc1ccc(CNC(=O)CN(CC(C)c2ccccc2)S(=O)(=O)c2ccc(-c3ccccc3Cl)cc2)cc1` (stereo not drawn) [Compound 472], the EC50 is over 50000 nM.

`C[C@@H](CN(CC(=O)N1CCC(C2CCNCC2)CC1)S(=O)(=O)c1ccc(-c2ccccc2Cl)cc1)c1ccccc1` [Compound 367]: the midpoint of the response, the EC50, lay at 1020 nM. That is a single-digit micromolar value.

The compound `COc1ccccc1CCN(CC(=O)NCC1CCCC(CN)C1)S(=O)(=O)c1ccc(-c2ccccc2OC)cc1` (stereo not drawn) [Compound 338] yielded an EC50 of 440 nM.

With `COc1ccccc1CCN(CC(=O)NCCCCCCN)S(=O)(=O)c1ccc(-c2ccc(Cl)cc2Cl)cc1` [Compound 355], it took 400 nM to reach a half-maximal effect (EC50).

The compound `CC(=O)NCc1ccc(CNC(=O)CN(CC(C)c2ccccc2)S(=O)(=O)c2ccc(-c3ccccc3C)cc2)cc1` (stereo not drawn) [Compound 476] had a half-maximal effective concentration (EC50) of at least 50000 nM.

The compound `C[C@@H](CN(CC(=O)NCC1CCCC(CN)C1)S(=O)(=O)c1ccc(-c2ccccc2Cl)cc1)c1ccccc1` (stereo partly drawn) [Compound 385] had an EC50 of 330 nM.

`C[C@@H](CN(CC(=O)NCc1ccc(CN)cc1)S(=O)(=O)c1ccc(C(C)(C)C)cc1)c1ccccc1` [Compound 555] returned an EC50 of 1930 nM.

For the compound `COc1ccccc1CN(CC(=O)NCC1CCCC(CN)C1)S(=O)(=O)c1ccc(-c2ccccc2Cl)cc1` (stereo not drawn) [Compound 341], the EC50 is 570 nM.

With `C[C@@H](CN(CC(=O)NCc1ccc(CN(C)C)cc1)S(=O)(=O)c1ccc(-c2ccccc2Cl)cc1)c1ccccc1` [Compound 471], the EC50 turned out to be 50000 nM. Against the preceding compound, the EC50 is about 88-fold higher.

On to `C[C@@H](CN(CC(=O)NCc1ccc(CN)cc1)C(=O)Nc1ccc(-c2ccccc2)cc1)c1ccccc1` [Compound 590], for which the EC50 was 2600 nM.

As for `COc1ccc(CCN(CC(=O)NCCCCCCN)S(=O)(=O)c2ccc(-c3ccccc3Cl)cc2)cc1` [Compound 502], it took 300 nM to reach a half-maximal effect (EC50).

`COc1ccccc1CCN(CC(=O)NCc1ccc(CN)cc1)S(=O)(=O)c1ccccc1-c1ccccc1C` [Compound 218]: the EC50 worked out at 1200 nM.

In the case of `Cc1ccccc1-c1ccc(S(=O)(=O)N(CC(=O)NCc2cccc(CN)c2)C[C@H](C)c2ccccc2)cc1` [Compound 390], the midpoint of the response, the EC50, lay at 230 nM.

`CC(=O)NCc1ccc(CNC(=O)CN(C[C@H](C)c2ccccc2)S(=O)(=O)c2ccc(-c3ccccc3Cl)cc2)cc1` [Compound 473] had an EC50 of over 50000 nM.

Consider `Cc1ccccc1-c1ccc(S(=O)(=O)N(CC(=O)NCc2ccc(CN)cc2)C2CC2c2ccccc2)cc1` (stereo not drawn) [Compound 320], for which the EC50 came out at 2570 nM.

The compound `C[C@H](CN(CC(=O)NCCCCCCN)S(=O)(=O)c1ccc(-c2cccc(F)c2)cc1)c1ccccc1` [Compound 401] yielded an EC50 of 1360 nM.

`Cc1ccccc1-c1ccc(S(=O)(=O)N(CC(=O)NCc2ccc(CN(C)C)cc2)C[C@@H](C)c2ccccc2)cc1` [Compound 474] registered an EC50 of over 50000 nM.

Compound `COc1ccccc1CCN(CC(=O)NCCCCCCN)S(=O)(=O)c1ccc(-c2ccccc2Cl)cc1` [Compound 353] came in with an EC50 of 140 nM.

On to `COc1ccccc1CCN(CC(=O)NCC1CCCC(CN)C1)S(=O)(=O)c1ccc(-c2ccc(Cl)cc2Cl)cc1` (stereo not drawn) [Compound 339], for which it took 1100 nM to reach a half-maximal effect (EC50).

Compound `C[C@H](CN(CC(=O)NCc1ccc(CN)cc1)S(=O)(=O)c1ccc(-c2cccc(F)c2)cc1)c1ccccc1` [Compound 213] registered an EC50 of 70 nM.

`COc1ccccc1CCN(CC(=O)NCC1CCCC(CN)C1)S(=O)(=O)c1ccc(-c2ccccc2C)cc1` (stereo not drawn) [Compound 336]: the EC50 amounted to 980 nM. Compared with the last compound, the EC50 is about 14-fold higher.

`C[C@@H](CN(CC(=O)NCCCCCN)S(=O)(=O)c1ccc(-c2ccccc2Cl)cc1)c1ccccc1` [Compound 379] showed an EC50 of at least 50000 nM.

The compound `Cc1ccccc1-c1ccc(S(=O)(=O)N(CC(=O)NCC2CCC(CN)CC2)C[C@H](C)c2ccccc2)cc1` (stereo partly drawn) [Compound 372] yielded an EC50 of 190 nM.

With `CC(CN(CC(=O)NC1CCC(CC2CCC(N)CC2)CC1)S(=O)(=O)c1ccc(-c2ccccc2Cl)cc1)c1ccccc1` (stereo not drawn) [Compound 497], the EC50 stood at 4040 nM.
